Test results reported in patent US11241440B2, “Dihydrooxadiazine compounds for treating infections and cancer” (VALORALIA I MÁS D, SL, priority 2016, dated 2022).

System: M. chelonae
Assay: Kirby-Bauer disk diffusion susceptibility test
Assay type: cell-based
Conditions: M. chelonae strain 870, isolation year 2011

Penicillin was tested, and the “Characteristics of strains: susceptibility or resistance” value was “R”.
